PMC3324139 (2012)

Experiments:
[1] = system: 76 mer-DNA aptamer (DNA, aptamer) CGTACGGAATTCGCTAGCCCCCCGGCAGGCCACGGCTTGGGTTGGTCCCACTGCGCGTGGATCCGAGCTCCACGTG; assay: competitive enzyme-linked aptamer assay (ELAA); conditions: sodium phosphate 10 mM, no added NaCl, no Mg2+; pH 7.2, RT; TC-HRP displaced; relative to TC = 100% at 50% B/B0; apparent
[2] = system: 57 mer-RNA aptamer (RNA, aptamer) GAGCCUAAAACAUACCAGAGAAAUCUGGAGAGGUGAAGAAUACGACCACCUAGGCUC; assay: competitive enzyme-linked aptamer assay (ELAA); conditions: sodium phosphate 10 mM, no added NaCl, no Mg2+; pH 7.2, RT; TC-HRP displaced; relative to TC = 100% at 50% B/B0; apparent

Cross-reactivity [1]: 129.7%
Cross-reactivity [2]: 35.3%
SMILES: CN(C)[C@@H]1C(=O)C(C(N)=O)=C(O)[C@@]2(O)C(=O)C3=C(O)c4c(O)cccc4[C@@](C)(O)[C@H]3[C@H](O)[C@@H]12
